Values of other authors as cited in patent US20150174235A1, “VACCINE” (Bionor Immuno AS, priority 2012, published 2015).

Tested on: HIV-specific T-cells
Conditions: for IL-2 production by CD8 T-cells / lytic capacity of polyfunctional HIV specific CD8+ T cells / number of polyfunctional CD4+ T-cells / proliferation of CD4+ T cells / Gag antigen epitopes recognized: IMiD present during in vitro T-cell stimulation; for Gag antigen epitopes recognized: also at lower antigen peptide concentrations; for IFN-γ production by CD8+ T-cells and CD4 T-cells: after antigen stimulation, IMiD present

| Compound | IL-2 production by CD8 T-cells | lytic capacity of polyfunctional HIV specific CD8+ T cells | number of polyfunctional CD4+ T-cells | proliferation of CD4+ T cells | Gag antigen epitopes recognized | IFN-γ production by CD8+ T-cells and CD4 T-cells |
| --- | --- | --- | --- | --- | --- | --- |
| Nc1cccc2c1C(=O)N(C1CCC(=O)NC1=O)C2=O (stereo not drawn) [pomalidomide] | increased | enhanced | increased | reduced | more | detectable |
| Nc1cccc2c1CN(C1CCC(=O)NC1=O)C2=O (stereo not drawn) [Lenalidomide] | increased | enhanced | increased | reduced | more | detectable |
